The nature of series [1]: Stability of Compound 9 formulated for injection at room temperature. Type of series: physicochemical. The protocol:
Radiolabeling chemistry was performed using automated synthesis of the following steps: (1) azeotropic drying of [^18F]-fluoride; (2) [^18F]-fluorination; (3) Boc deprotection; and (4) HPLC purification, followed by solid-phase formulation of the final product. The synthesis module was operated in the following sequences with numerical references to FIG. 1. Automated syntheses were performed on a Synthra (Hamburg, Germany) model RN Plus automated synthesizer module. Boc-deprotection was conducted with 0.4 mmol aqueous HCl at 95° C. added directly to the labeling reaction mixture without any prior purification. The two-step synthesis can be finished in approximately 80 min with the total radiochemical yield of 47% after decay correction. • 1. [^18F]-Fluoride, received from PETNET (Waltham, Mass.), was produced by the ^18O(p,n)^18F nuclear reaction and delivered to the reagent vial A (A) of the radiosynthesis module via syringe after mixing with tetrabutylammonium bicarbonate ([…], 75 mM in H2O, 250 μL) and acetonitrile (MeCN, 300 μL). • 2. Automated synthesis began with the addition the [^18F]-fluoride/TBAB mixture (A) and MeCN (B) to the reaction vessel 1 (RV1). • 3. […] The eluent was monitored by UV (λ=254 nm) and radiochemical detectors connected in series. • 8. […]

The target in the next series is T1, MPO (Homo sapiens, UniProt P05164).
T1 sequence (P05164 49-745): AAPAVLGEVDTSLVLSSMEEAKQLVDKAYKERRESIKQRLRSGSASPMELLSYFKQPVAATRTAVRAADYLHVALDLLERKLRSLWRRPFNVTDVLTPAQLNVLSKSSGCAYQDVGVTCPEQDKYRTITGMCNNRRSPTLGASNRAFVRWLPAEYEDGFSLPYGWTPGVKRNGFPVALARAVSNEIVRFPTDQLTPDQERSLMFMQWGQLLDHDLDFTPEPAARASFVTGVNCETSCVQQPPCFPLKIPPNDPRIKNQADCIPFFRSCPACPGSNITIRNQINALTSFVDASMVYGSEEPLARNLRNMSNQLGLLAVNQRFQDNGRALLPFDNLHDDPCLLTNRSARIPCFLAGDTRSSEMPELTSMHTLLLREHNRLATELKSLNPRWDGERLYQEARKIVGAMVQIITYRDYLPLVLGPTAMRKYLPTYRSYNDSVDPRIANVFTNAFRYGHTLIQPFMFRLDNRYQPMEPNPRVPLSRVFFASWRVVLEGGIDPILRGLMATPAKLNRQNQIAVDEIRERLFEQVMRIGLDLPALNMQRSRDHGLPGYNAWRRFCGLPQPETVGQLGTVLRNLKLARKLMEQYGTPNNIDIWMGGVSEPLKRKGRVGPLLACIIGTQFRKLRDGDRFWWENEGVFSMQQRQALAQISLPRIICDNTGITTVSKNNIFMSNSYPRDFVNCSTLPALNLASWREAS
In words: MPO-PET matrigel implantation imaging in mice. It counts as in vivo, mouse. As to the method: 300 μL of 1:1 mixture of matrigel and minimal essential medium (MEM) containing GOX and/or different concentrations of MPO (0, 15 μL, 30 μL) was injected subcutaneously into the ventral aspect of the thighs of the mouse. After 30 min, 300-600 μCi of MPO Compound 9 was injected intravenously. After 2 h, the mice were scanned using PET scanning.
To validate the efficacy of the MPO PET agents for in vivo applications, matrigel implantation experiments were performed by embedding MPO in matrigel along with glucose oxidase (GOX) as H2O2 donor. Matrigel is a gelatinous protein mixture that is liquid at 0° C. but forms a gel at body temperature while remaining diffusible to molecules from the bloodstream when injected into living animals (see e.g., Chen et al, Radiology, 2006, 240(2):473-481). The MPO/matrigel mixtures were injected subcutaneously to the thighs of the mice followed by injection of the MPO PET tracers 30 min later. […] The signal of MPO side was around 1.7 fold higher compared to that of control side.
To verify the specificity of Compound 9 over MPO, different concentrations of MPO (0, 15 μL, 30 μL) were embedded in matrigel for the implantation experiments.

Series [2] can be described thus: Dynamic PET study of Compound 9 over 3 hours. Type of series: in vivo, mouse. The following applies: dynamic study over 3 hours.
Series [3] can be described thus: Blood brain barrier assay, PET brain uptake. It counts as in vivo, Female C57Bl/6J mice. As to the method: Female C57Bl/6J mice were injected intravenously with either 3′-deoxy-3′-^18F-fluorothymidine (FLT) or Compound 9 (300-600 μCi). The mice were imaged 2 hours after the PET tracers were injected.

For `O=C(Cc1c[nH]c2ccc(O)cc12)NC(Cc1c[nH]c2ccc(O)cc12)C(=O)NCCOCCOCC[18F]` (centres unmarked) [Compound 9], in series [1] (0.5% (w/v) aqueous sodium-ascorbate in saline), the “Time stable on storage” value is “at least 4 h”. For the same compound, in series [1] (1×PBS for injection), the Stability on storage result is reported as “degraded over time”. Moreover, the “PET signal versus MPO concentration” value at MPO (MPO 0, 15 μL, 30 μL embedded in matrigel) is on record as “linear increase in signal”. The “Background, organ uptake and defluorination” value on MPO (matrigel PET imaging in mice) was “high ratio of signal to background, lower liver and heart uptake and no observed defluorination”. Moreover, on MPO (matrigel with GOX+MPO vs GOX only in mouse thighs, scan 2 h after i.v. tracer), the “PET signal of MPO side compared to control side” value is “around 1.7 fold”. In addition, the “Blood-brain barrier crossing (brain data)” value in series [2] was “can cross the blood-brain barrier”. Also, in series [3] (300-600 μCi i.v., imaged 2 hours after injection), the “Uptake in the brain (SUV, FIG. 12)” value is on record as “higher uptake in the brain compared to FLT”. In addition, the “Crossing of the blood brain barrier” value in series [3] (intact BBB) is “can cross intact BBB”.
